SMILES strings stand for the structures. Where a SMILES comes first, the peptide text is derived from it. [ ]: non-standard residue; d: D form. The star is where a group is joined. Nle = CCCC[C@H](N)C(=O)O; Cbz = O=C(OCc1ccccc1)*; CH2F = FC*

The subject of one experiment is HA-tagged PML/RARα. Put plainly: In vitro degradation assay with lysates of NB4-S1 cells. In kind it is biochemical. The following applies: for blocking of PML/RARα degradation by lysates of arsenic-treated cells: inhibitor added to in vitro degradation assay. As for the experimental part: Cell lysates of NB4-S1 cells, either treated for 72 hours with arsenic (1 μM) or left untreated, were obtained using a mild-lysis buffer that supported lysosomal enzymatic activity. In vitro degradation assays were performed using these lysates and HA-tagged PML/RARα was used as a target for degradation.

In experiment [1] the test system is retinoic acid-sensitive NB4-S1 APL cells. Nature of the experiment: Growth suppression, cell counts (Coulter counter). In kind it is cell-based. Conditions: for growth suppressive activity: agent alone, chloroquine ranked over retinoic acid-sensitive and -resistant cells. The procedure: Three independent experiments were conducted.
To identify other agents which destabilize lysosomes, APL cells were contacted with test agents and the ability of the test agent to induce cell death was evaluated.

Another experiment deals with APL NB4-S1 cells. Nature of the experiment: Cell differentiation, nitroblue tetrazolium reduction assay. The class given is cell-based. The following applies: 20 μM, 6 days. The procedure: (§1) Cell differentiation was evaluated using a nitroblue tetrazolium reduction assay, wherein the presence blue formazan deposits under light microscopy is indicative of differentiated cells. Further, apoptosis was evaluated using Hoechst staining of nuclear DNA wherein the DNA was characterized morphologically by nuclear condensation and fragmentation of chromosomes.

Experiment [2] concerns NB4-S1 APL cells. Nature of the experiment: Apoptosis, Hoechst staining of nuclear DNA. The class given is cell-based. Conditions: 20 μM. The procedure:
as §1
The percentage of apoptotic cells was determined. This experiment was performed independently three times and three random fields were selected to assess the percentage of apoptotic cells.

Experiment [3] relates to NB4-S1 APL cells. Nature of the experiment: Release of lysosomal proteins / cytochrome c into the cytosolic fraction, SDS-PAGE and immunoblot. In kind it is cell-based. The following applies: after 1 μM arsenic treatment. The procedure:
(§2) By way of illustration, arsenic was applied to APL, retinoic acid-sensitive NB4-S1 cells and found to rapidly (within 2 hours) destabilize lysosomes in these leukemic cells as compared to untreated cells in an assay using a lysosome-specific targeting dye and confocal microscopy. […] Conversely, cytochrome c (an activator of caspase-induced apoptosis) was not detected in the cytosol until 96 hours.
(In general: A western blot detects proteins with antibodies after separation by electrophoresis.)

In a further experiment the test system is NB4-S1 cells. Put plainly: Lysosome destabilization, lysosome-specific targeting dye and confocal microscopy. In kind it is cell-based. Conditions: compared to untreated cells. The procedure: as §2
For experiment [4], the system named is wild-type cystic fibrosis protein (CFTR). Nature of the experiment: CFTR degradation by cell content of arsenic-exposed COS cells. In kind it is biochemical. Conditions: CFTR over-expressed in MDCK cells; cell content of COS exposed to arsenic. From the text:
(§3) This arsenic-activated degradation program was also engaged by non-leukemic cells. […] Accordingly, this lysosome-dependent degradative pathway can be employed as a general therapeutic target for the destruction of oncogenic (e.g., PML/RARα) or aberrant (e.g., CFTR) proteins in the prevention and treatment of cancer or other diseases which are associated with said proteins. Further, lysosome destabilization can be used to identify other small molecule activators which, like arsenic, would have therapeutic activity via induced destabilization of lysosomes that would in turn eliminate oncogenic or other aberrant proteins by triggering their destruction.

Experiment [5] concerns isolated lysosomes from NB4 APL cells. Nature of the experiment: Degradation of isolated lysosomes in vitro.
From the text: as §3

On to `CCCC[C@@H](C=O)NC(=O)[C@H](CC(C)C)NC(=O)[C@H](CC(C)C)NC(C)=O` [ALLN] (Ac-Leu-Leu-[Nle]-aldehyde), for which the “blocking of PML/RARα degradation by lysates of arsenic-treated cells” value in the experiment with HA-tagged PML/RARα is given as “did not block PML/RARα degradation”.
For the molecule `CCN(CC)CCCC(C)Nc1ccnc2cc(Cl)ccc12` (centres unmarked) [Chloroquine, 7-chloro-4-(4-diethylamino-1-methylbutylamino) quinoline], in experiment [1] (chloroquine 20 μM combined with retinoic acid 0.1 μM, FIG. 1A), the “growth inhibitory effect in combination with retinoic acid” value was “additive growth inhibitory effect”. In the experiment on APL NB4-S1 cells, the induction of differentiation result is “does not induce differentiation”. Also, the induction of apoptosis entry in the experiment with NB4-S1 APL cells [2] is on record as “exposure time-dependent”. Besides, the results for the “% Apoptosis” value in the experiment on NB4-S1 APL cells [2] (24 hours), with NB4-S1 APL cells [2] (48 hours) and in the experiment on NB4-S1 APL cells [2] (72 hours) were 16%, 20% and 30%, respectively.
Turning to `CN(C)CCCN1c2ccccc2CCc2ccccc21` [Imipramine], in experiment [1], the growth suppressive activity result was “some growth suppressive activity”.
Same read-out and setting: as for `CCCCCCCCCCCCC/C=C/[C@@H](O)[C@H](CO)NCCCCCCCC` [N-octyl-D-erythro-sphingosine], the entry is “some growth suppressive activity”.
In the case of `[AsH3]` [arsenic], the “PML/RARα degradation by cell lysates of treated NB4-S1 cells” value with HA-tagged PML/RARα (cells treated 72 hours, 1 μM, versus untreated cell lysates) is reported as “rapidly degraded”. Further, in the experiment with NB4-S1 APL cells [3], the “cathepsin B detectable in the cytosolic fraction, earliest time” value turned out to be 30 min; the “cytochrome c not detected in the cytosol until” value was determined as 96 h; the “lysosomal protein esterase detectable in the cytosolic fraction, earliest time” value is 5 min. The “time to destabilize lysosomes” value with NB4-S1 cells was at most 2 h. Moreover, the CFTR degradation result in experiment [4] was “observed to be degraded”. Also, the “degradation of isolated lysosomes upon treatment” value in experiment [5] was “exhibited degradation in vitro”.
For the molecule `CC(NC(=O)C(NC(=O)OCc1ccccc1)C(C)C)C(=O)NC(CC(=O)O)C(=O)CF` (stereo not drawn) [zVAD] (Cbz-Val-Ala-Asp-CH2F; configuration not given here), in the experiment with HA-tagged PML/RARα, the “blocking of PML/RARα degradation by lysates of arsenic-treated cells” value is reported as “did not block PML/RARα degradation”.
